Assay results from ChEMBL document CHEMBL4706692, “CC-90009: A Cereblon E3 Ligase Modulating Drug That Promotes Selective Degradation of GSPT1 for the Treatment of Acute Myeloid Leukemia” (J Med Chem, 2021).
Activity calls are given as the source filed them. No cut-off for these calls is given here.

How the values were obtained:
[1] = MRT in cynomolgus monkey at 1 mg/kg, iv administered as bolus dose; assay type: ADME, organism-based, Macaca fascicularis; settings: in vivo
[2] = Volume of distribution at steady state in cynomolgus monkey at 1 mg/kg, iv administered as bolus dose; assay type: ADME, organism-based, Macaca fascicularis; settings: in vivo, read-out: Vdss
[3] = biological target: T1, Protein cereblon/Eukaryotic peptide chain release factor GTP-binding subunit ERF3A (Homo sapiens) (UniProt Q96SW2+P15170); assay: Protac activity at CRBN/GSPT1 in CD3+ T cells derived from patients assessed as reduction of GSPT1 levels in peripheral blood blast administered intravenously for 5 days by flow cytometry analysis; assay type: cell-based; settings: CD3-positive T cell, time 5.0 day
T1 sequence (P15170 whole entry, looked up): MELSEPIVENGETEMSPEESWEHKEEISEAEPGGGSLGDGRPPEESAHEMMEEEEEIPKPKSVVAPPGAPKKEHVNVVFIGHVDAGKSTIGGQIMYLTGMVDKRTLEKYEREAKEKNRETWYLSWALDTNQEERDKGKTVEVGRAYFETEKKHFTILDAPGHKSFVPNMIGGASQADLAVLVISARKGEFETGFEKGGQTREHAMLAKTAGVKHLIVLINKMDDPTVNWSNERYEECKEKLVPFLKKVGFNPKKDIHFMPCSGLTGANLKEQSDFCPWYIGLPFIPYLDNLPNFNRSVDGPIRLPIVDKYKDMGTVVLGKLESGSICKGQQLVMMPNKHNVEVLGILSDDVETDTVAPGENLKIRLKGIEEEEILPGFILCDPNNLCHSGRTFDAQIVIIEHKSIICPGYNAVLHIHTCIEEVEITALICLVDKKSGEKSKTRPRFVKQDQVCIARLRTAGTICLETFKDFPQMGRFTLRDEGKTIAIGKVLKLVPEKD
T1 sequence (Q96SW2 whole entry, looked up): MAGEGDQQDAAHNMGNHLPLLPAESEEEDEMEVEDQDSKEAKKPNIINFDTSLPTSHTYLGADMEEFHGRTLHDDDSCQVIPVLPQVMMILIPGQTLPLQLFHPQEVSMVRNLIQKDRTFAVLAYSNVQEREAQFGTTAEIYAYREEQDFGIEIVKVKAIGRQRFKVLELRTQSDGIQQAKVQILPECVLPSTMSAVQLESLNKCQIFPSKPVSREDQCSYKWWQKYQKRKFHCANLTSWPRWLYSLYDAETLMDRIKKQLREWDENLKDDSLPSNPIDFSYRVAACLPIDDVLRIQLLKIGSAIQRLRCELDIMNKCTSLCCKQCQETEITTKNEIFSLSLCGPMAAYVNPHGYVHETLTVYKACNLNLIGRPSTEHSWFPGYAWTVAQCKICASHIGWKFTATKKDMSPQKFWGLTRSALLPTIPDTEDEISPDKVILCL

Cereblon/Ikaros = Cereblon/Ikaros (Homo sapiens, UniProt Q13422+Q96SW2); assay: Protac activity at CRBN/IKZF1 (unknown origin) assessed as IKZF1 degradation; assay type: protein-complex assay
[4] = biological target: T1, Protein cereblon/Eukaryotic peptide chain release factor GTP-binding subunit ERF3A (Homo sapiens); assay: Protac activity at CRBN/GSPT1 in human KG-1 cells assessed as GSPT1 degradation at 1 uM incubated for 4 hrs by western blot analysis; assay type: cell-based
[5] = Volume of distribution at steady state in CD-IGS rat at 2 mg/kg, iv administered as bolus dose; assay type: ADME, organism-based; settings: in vivo, read-out: Vdss
[6] = biological target: T1, Protein cereblon/Eukaryotic peptide chain release factor GTP-binding subunit ERF3A (Homo sapiens); assay: Protac activity at CRBN/GSPT1 in CD3+ T cells derived from patients assessed as reduction of GSPT1 levels at 2.4 mg, iv administered for 5 days by flow cytometry analysis relative to control; assay type: organism-based; set-up: scale not given: the % may be the effect or the level left; settings: CD3-positive T cell, time 5.0 day
[7] = biological target: T1, Protein cereblon/Eukaryotic peptide chain release factor GTP-binding subunit ERF3A (Homo sapiens); assay: Protac activity at CRBN/GSPT1 in human KG-1 cells assessed as GSPT1 degradation by measuring accumulation of ATF4 at 200 uM incubated for 4 hrs by western blot analysis; assay type: cell-based
[8] = biological target: Solute carrier family 22 member 6 (Homo sapiens, UniProt Q4U2R8); assay: Inhibition of OAT1 (unknown origin) at upto 3 uM
Homo sapiens = species on record: Homo sapiens; assay: Inhibition of P-gp (unknown origin) at upto 3 uM; settings: dose microM <=3
[9] = Volume of distribution at steady state in CD1 mouse at 2 mg/kg, iv administered as bolus dose; assay type: ADME, organism-based; settings: in vivo, read-out: Vdss
[10] = biological target: Solute carrier organic anion transporter family member 1B1 (Homo sapiens, UniProt Q9Y6L6); assay: Inhibition of OATP1B1 (unknown origin) at upto 3 uM
[11] = biological target: Solute carrier family 22 member 2 (Homo sapiens, UniProt O15244); assay: Inhibition of OCT2 (unknown origin) at upto 3 uM
Chain of Solute carrier family 22 member 2 (O15244 whole entry): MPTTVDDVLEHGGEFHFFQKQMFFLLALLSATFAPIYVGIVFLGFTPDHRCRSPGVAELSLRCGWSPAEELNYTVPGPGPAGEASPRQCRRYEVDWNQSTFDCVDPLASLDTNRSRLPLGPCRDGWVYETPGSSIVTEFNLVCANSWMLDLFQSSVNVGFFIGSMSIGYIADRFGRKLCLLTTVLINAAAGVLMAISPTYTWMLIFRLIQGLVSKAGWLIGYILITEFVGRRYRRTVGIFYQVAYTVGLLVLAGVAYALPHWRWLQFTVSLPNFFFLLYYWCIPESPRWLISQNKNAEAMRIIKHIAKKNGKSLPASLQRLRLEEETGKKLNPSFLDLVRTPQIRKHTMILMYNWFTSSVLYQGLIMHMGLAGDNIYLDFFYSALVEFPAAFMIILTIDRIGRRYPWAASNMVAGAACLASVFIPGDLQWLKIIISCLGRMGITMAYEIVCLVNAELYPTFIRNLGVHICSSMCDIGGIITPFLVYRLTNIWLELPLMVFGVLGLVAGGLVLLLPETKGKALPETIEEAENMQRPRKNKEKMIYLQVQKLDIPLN

[12] = biological target: Multidrug and toxin extrusion protein 2 (Homo sapiens, UniProt Q86VL8); assay: Inhibition of MATE2 (unknown origin) at upto 3 uM
[13] = biological target: T1, Protein cereblon/Eukaryotic peptide chain release factor GTP-binding subunit ERF3A (Homo sapiens); assay: Protac activity at CRBN/GSPT1 in human DF-15 cells assessed as maximum GSPT1 degradation incubated for 20 hrs by hunter detection reagent based luminescence assay relative to control; assay type: cell-based; settings: DF15
HL-60 [14] = assay: Antitumor activity against human HL-60 cells in xenografted model assessed as reduction in CD33+/CD45+ in bone marrow at 2.5 mg/kg, BID administered for 10 consecutive days relative to control; assay type: functional; settings: HL-60, 240 h, time 10 day
Bone marrow cell = assay: Antiproliferative activity in bone marrow cells derived from AML patients assessed as cell growth inhibition; assay type: functional, cell-based; settings: Homo sapiens
[15] = biological target: T1, Protein cereblon/Eukaryotic peptide chain release factor GTP-binding subunit ERF3A (Homo sapiens); assay: Protac activity at CRBN/GSPT1 in human KG-1 cells assessed as GSPT1 degradation by measuring accumulation of ATF3 at 200 uM incubated for 4 hrs by western blot analysis; assay type: cell-based
[16] = Volume of distribution in iv dosed acute myeloid leukemia patient; assay type: ADME, organism-based; settings: human, in vivo
[17] = biological target: Solute carrier organic anion transporter family member 1B3 (Homo sapiens, UniProt Q9NPD5); assay: Inhibition of OATP1B3 (unknown origin) at upto 3 uM
Cytochrome P450 2C19 = Cytochrome P450 2C19 (Homo sapiens, UniProt P33261); assay: Inhibition of CYP2C19 (unknown origin); assay type: ADME
Chain of Cytochrome P450 2C19 (P33261 whole entry): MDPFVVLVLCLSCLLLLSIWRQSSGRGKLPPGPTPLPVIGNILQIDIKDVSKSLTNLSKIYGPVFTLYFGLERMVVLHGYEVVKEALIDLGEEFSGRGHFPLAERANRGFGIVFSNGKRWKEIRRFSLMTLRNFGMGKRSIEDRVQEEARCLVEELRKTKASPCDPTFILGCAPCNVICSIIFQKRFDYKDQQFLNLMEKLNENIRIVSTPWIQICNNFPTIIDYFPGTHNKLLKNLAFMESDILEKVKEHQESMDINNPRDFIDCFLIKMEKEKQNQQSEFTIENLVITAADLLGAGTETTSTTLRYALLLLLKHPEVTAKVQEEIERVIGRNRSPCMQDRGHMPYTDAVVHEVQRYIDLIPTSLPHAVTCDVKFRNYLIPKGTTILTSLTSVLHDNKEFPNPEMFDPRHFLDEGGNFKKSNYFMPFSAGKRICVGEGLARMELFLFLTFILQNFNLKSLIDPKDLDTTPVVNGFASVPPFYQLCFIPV

[18] = Clearance in CD-IGS rat at 2 mg/kg, iv administered as bolus dose; assay type: ADME, organism-based; settings: in vivo
[19] = MRT in CD1 mouse at 2 mg/kg, iv administered as bolus dose; assay type: ADME, organism-based; settings: in vivo
[20] = Clearance in CD1 mouse at 2 mg/kg, iv administered as bolus dose; assay type: ADME, organism-based; settings: in vivo
[21] = biological target: Muscarinic acetylcholine receptor M2 (Homo sapiens) (UniProt P08172); assay: Inhibition of human muscarinic M2 receptor at 10 uM relative to control
[22] = biological target: Voltage-gated inwardly rectifying potassium channel KCNH2 (Homo sapiens, UniProt Q12809); assay: Inhibition of human ERG
Chain of Voltage-gated inwardly rectifying potassium channel KCNH2 (Q12809 whole entry): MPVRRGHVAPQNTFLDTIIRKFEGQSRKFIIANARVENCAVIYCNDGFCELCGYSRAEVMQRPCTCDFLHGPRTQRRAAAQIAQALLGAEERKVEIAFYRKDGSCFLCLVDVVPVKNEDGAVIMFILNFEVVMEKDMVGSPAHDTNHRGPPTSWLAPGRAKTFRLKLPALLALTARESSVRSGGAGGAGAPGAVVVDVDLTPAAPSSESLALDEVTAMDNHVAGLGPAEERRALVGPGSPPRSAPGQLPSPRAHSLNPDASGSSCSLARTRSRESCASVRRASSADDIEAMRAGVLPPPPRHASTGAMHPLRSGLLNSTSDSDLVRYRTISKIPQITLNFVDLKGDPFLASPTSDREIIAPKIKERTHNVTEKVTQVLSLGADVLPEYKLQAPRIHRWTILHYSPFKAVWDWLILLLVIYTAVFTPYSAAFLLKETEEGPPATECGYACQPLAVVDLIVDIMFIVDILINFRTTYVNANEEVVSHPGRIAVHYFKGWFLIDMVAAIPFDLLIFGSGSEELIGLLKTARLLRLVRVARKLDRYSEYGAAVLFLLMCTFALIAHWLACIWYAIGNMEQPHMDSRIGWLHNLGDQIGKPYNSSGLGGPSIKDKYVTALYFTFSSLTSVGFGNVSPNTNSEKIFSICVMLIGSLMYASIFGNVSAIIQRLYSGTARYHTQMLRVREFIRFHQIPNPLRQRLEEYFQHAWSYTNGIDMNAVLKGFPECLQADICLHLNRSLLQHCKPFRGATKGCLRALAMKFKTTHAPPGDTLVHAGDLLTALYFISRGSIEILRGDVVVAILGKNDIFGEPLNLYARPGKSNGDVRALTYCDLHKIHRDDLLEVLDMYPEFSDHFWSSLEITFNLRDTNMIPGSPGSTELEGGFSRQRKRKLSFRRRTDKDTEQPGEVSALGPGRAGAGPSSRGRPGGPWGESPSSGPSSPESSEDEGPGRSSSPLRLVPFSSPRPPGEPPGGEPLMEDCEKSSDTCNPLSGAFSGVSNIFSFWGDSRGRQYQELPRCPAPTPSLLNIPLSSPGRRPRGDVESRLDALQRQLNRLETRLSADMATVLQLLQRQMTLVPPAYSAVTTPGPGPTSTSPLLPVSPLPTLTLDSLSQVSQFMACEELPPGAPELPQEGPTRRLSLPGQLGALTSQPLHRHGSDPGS

[23] = MRT in CD-IGS rat at 2 mg/kg, iv administered as bolus dose; assay type: ADME, organism-based; settings: in vivo
[24] = biological target: T1, Protein cereblon/Eukaryotic peptide chain release factor GTP-binding subunit ERF3A (Homo sapiens); assay: Protac activity at CRBN/GSPT1 in human KG-1 cells assessed as GSPT1 degradation by measuring accumulation of CHOP at 200 uM incubated for 4 hrs by western blot analysis; assay type: cell-based
[25] = biological target: Broad substrate specificity ATP-binding cassette transporter ABCG2 (Homo sapiens, UniProt Q9UNQ0); assay: Inhibition of BCRP (unknown origin) at upto 3 uM
[26] = biological target: T1, Protein cereblon/Eukaryotic peptide chain release factor GTP-binding subunit ERF3A (Homo sapiens); assay: Protac activity at CRBN/GSPT1 in human DF-15 cells assessed as GSPT1 degradation at 0.2 to 3 uM incubated for 4 to 6 hrs by Incell-hunter detection reagent based luminescence assay relative to control; assay type: cell-based; settings: DF15, dose 0.2-3 µM, time 4-6 hrs
[27] = biological target: T1, Protein cereblon/Eukaryotic peptide chain release factor GTP-binding subunit ERF3A (Homo sapiens); assay: Protac activity at CRBN/GSPT1 in human DF-15 cells assessed as in depth GSPT1 degradation incubated for 20 hrs by hunter detection reagent based luminescence assay relative to control; assay type: cell-based; settings: DF15
[28] = Clearance in cynomolgus monkey at 1 mg/kg, iv administered as bolus dose; assay type: ADME, organism-based, Macaca fascicularis; settings: in vivo
[29] = biological target: T1, Protein cereblon/Eukaryotic peptide chain release factor GTP-binding subunit ERF3A (Homo sapiens); assay: Protac activity at CRBN/GSPT1 in human KG-1 cells assessed as GSPT1 degradation at 1 uM incubated for 4 hrs in presence of proteasome inhibitor bortezomib by western blot analysis; assay type: cell-based
[30] = biological target: T1, Protein cereblon/Eukaryotic peptide chain release factor GTP-binding subunit ERF3A (Homo sapiens); assay: Protac activity at CRBN/GSPT1 in human DF15 cells assessed as maximum GSPT1 degradation incubated for 4 hrs by hunter detection reagent based luminescence assay relative to control; assay type: cell-based
[31] = Total clearance in iv dosed acute myeloid leukemia patient; assay type: ADME, organism-based; settings: human, in vivo
[32] = biological target: Muscarinic acetylcholine receptor M1 (Homo sapiens) (UniProt P11229); assay: Inhibition of human muscarinic M1 receptor at 10 uM relative to control
[33] = Terminal half life in iv dosed acute myeloid leukemia patient; assay type: ADME, organism-based; settings: human, in vivo, read-out: beta t1/2 (converted)
[34] = biological target: Organic anion transporter 3 (Homo sapiens, UniProt Q8TCC7); assay: Inhibition of OAT3 (unknown origin) at upto 3 uM
[35] = biological target: T1, Protein cereblon/Eukaryotic peptide chain release factor GTP-binding subunit ERF3A (Homo sapiens); assay: Protac activity at CRBN/GSPT1 in human DF15 cells assessed as in depth GSPT1 degradation incubated for 4 hrs by hunter detection reagent based luminescence assay; assay type: cell-based
[36] = biological target: T1, Protein cereblon/Eukaryotic peptide chain release factor GTP-binding subunit ERF3A (Homo sapiens); assay: Protac activity at CRBN/GSPT1 in human NB-4 cells assessed as induction of GSPT1 degradation at 0.001 to 1 uM incubated for 4 hrs by western blot analysis; assay type: cell-based; settings: dose 0.001-1 µM
[37] = biological target: T1, Protein cereblon/Eukaryotic peptide chain release factor GTP-binding subunit ERF3A (Homo sapiens); assay: Protac activity at CRBN/GSPT1 in human KG-1 cells assessed as GSPT1 degradation at 1 uM incubated for 4 hrs in presence of neddylation inhibitor MLN4924 by western blot analysis; assay type: cell-based
HL-60 [38] = assay: Antitumor activity against human HL-60 cells in xenografted model assessed as reduction in CD33+/CD45+ in bone marrow at 5 mg/kg, BID administered for 5 consecutive days relative to control; assay type: functional; settings: HL-60, 120 h, time 5 day
CYP2C9 = CYP2C9 (Homo sapiens, UniProt P11712); assay: Inhibition of CYP2C9 (unknown origin) at 2.5 uM relative to control; assay type: ADME
[39] = biological target: ATP-binding cassette sub-family C member 2 (Homo sapiens, UniProt Q92887); assay: Inhibition of MRP2 (unknown origin) at upto 3 uM
Chain of ATP-binding cassette sub-family C member 2 (Q92887 whole entry): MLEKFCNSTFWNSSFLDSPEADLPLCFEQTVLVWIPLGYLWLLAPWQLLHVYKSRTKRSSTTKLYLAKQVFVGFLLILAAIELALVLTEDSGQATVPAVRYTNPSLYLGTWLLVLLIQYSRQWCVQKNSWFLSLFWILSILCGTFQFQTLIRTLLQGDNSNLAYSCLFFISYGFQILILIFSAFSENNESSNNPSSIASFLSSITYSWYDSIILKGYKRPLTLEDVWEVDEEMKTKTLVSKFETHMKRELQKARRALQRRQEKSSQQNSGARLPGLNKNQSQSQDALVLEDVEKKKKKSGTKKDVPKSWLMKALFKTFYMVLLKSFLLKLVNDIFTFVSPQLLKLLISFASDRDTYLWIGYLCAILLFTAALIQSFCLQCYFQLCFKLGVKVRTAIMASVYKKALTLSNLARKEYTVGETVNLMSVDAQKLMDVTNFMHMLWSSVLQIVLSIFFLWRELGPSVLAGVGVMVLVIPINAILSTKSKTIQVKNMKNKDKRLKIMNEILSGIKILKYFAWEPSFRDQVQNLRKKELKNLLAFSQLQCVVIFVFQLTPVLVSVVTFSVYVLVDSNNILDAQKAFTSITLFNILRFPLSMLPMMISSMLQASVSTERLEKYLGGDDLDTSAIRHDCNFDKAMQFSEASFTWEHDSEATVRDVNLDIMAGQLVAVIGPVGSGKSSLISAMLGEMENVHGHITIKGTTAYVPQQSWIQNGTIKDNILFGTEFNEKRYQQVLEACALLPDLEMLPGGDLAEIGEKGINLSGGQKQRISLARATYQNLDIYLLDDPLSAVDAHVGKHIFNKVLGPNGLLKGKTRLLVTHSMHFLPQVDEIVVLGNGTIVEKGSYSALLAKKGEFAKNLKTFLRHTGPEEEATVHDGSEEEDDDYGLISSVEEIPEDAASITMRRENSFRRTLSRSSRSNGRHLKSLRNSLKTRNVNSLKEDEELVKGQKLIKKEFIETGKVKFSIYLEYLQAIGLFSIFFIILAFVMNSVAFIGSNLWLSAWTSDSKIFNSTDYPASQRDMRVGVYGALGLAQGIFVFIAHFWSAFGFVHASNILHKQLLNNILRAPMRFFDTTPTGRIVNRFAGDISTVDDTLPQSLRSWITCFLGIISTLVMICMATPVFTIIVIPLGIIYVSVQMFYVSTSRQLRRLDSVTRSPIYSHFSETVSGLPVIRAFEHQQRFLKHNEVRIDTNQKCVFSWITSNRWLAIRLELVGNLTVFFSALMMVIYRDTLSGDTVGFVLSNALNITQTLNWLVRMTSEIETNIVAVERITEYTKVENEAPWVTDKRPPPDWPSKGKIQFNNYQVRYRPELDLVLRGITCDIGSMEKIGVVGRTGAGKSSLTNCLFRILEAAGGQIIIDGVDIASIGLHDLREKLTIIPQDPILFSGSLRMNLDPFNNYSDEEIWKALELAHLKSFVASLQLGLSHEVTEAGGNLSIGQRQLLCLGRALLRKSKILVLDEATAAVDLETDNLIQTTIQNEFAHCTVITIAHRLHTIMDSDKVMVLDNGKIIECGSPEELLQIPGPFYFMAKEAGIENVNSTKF

[40] = biological target: Protein cereblon/Zinc finger protein Aiolos (Homo sapiens, UniProt Q96SW2+Q9UKT9); assay: Protac activity at CRBN/IKZF3 (unknown origin) assessed as IKZF3 degradation; assay type: protein assay
[41] = Toxicity in cynomolgus monkey assessed as effect on cardiovascular system; set-up: species or system Macaca fascicularis; settings: in vivo
[42] = biological target: T1, Protein cereblon/Eukaryotic peptide chain release factor GTP-binding subunit ERF3A (Homo sapiens); assay: Protac activity at CRBN/GSPT1 in CD3+ T cells derived from patients assessed as reduction of GSPT1 levels in T cells administered intravenously for 5 days by flow cytometry analysis; settings: CD3-positive T cell, time 5.0 day
THLE-2 = assay: Cytotoxicity against human THLE-2 cells assessed as cell viability incubated for 72 hrs by cell titer glo assay; assay type: cell-based; settings: THLE-2, 72 h
KG-1 = assay: Antiproliferative activity against human KG-1 cells assessed as reduction in cell viability incubated for 72 hrs by cell titer glo assay; assay type: functional, cell-based; settings: KG-1, 72 h
[43] = Selectivity index, ratio of IC50 for cytotoxicity against human THLE-2 cells to IC50 for antiproliferative activity against human KG-1 cells

Compound: O=C1CCC(N2Cc3cc(CNC(=O)C(F)(F)c4ccc(Cl)cc4)ccc3C2=O)C(=O)N1 (stereo not given)
- MRT [1]: 4 h
- Vd [2]: 1.1 L/kg
- Activity [3]: Dose-dependent effect
- EC50 (Cereblon/Ikaros): > 10 µM
- Activity [4]: Active
- Vd [5]: 2.2 L/kg
- Activity [6]: 90%
- Activity [7]: Active
- inhibition (INH) [8]: Not Active
- inhibition (Homo sapiens): inactive
- Vd [9]: 1 L/kg
- inhibition (INH) [10]: Not Active
- inhibition (INH) [11]: Not Active
- inhibition (INH) [12]: Not Active
- Emax [13]: 88%
- inhibition in vivo at 2.5 mg/kg (HL-60 [14]): 71.5%
- EC50 (Bone marrow cell): 0.006 µM
- Activity [15]: Active
- Vd [16]: 61.7 L
- inhibition (INH) [17]: Not Active
- IC50 (Cytochrome P450 2C19): 1.53 µM
- clearance [18]: 28.3 mL/min/kg
- MRT [19]: 0.24 h
- clearance [20]: 67.9 mL/min/kg
- inhibition [21]: > 50%
- IC50 [22]: 5.3 µM
- MRT [23]: 1.3 h
- Activity [24]: Active
- inhibition (INH) [25]: Not Active
- Activity [26]: 75%
- Activity [27]: Active
- clearance [28]: 6 mL/min/kg
- Activity [29]: inactive
- Emax [30]: 51%
- clearance [31]: 116 mL/min
- inhibition [32]: > 50%
- half-life [33]: 9.3 h
- inhibition (INH) [34]: Not Active
- Activity [35]: Active
- Activity [36]: Active
- Activity [37]: inactive
- inhibition in vivo at 5 mg/kg (HL-60 [38]): 54%
- inhibition at 2.5 µM (CYP2C9): 41%
- inhibition (INH) [39]: Not Active
- EC50 [40]: > 10 µM
- Activity [41]: Non-Toxic
- Activity [42]: Dose-dependent effect

Compound: O=C1CCC(N2Cc3cc(CNC(=O)C(F)(F)c4ccccc4)ccc3C2=O)C(=O)N1 (stereo not given)
- IC50 (THLE-2): > 10 µM
- IC50 (KG-1): 0.097 µM
- Ratio IC50 [43]: >100
